Data set [1] addresses T1, Tyrosinase (Agaricus bisporus) (UniProt O42713).
T1 sequence (whole entry): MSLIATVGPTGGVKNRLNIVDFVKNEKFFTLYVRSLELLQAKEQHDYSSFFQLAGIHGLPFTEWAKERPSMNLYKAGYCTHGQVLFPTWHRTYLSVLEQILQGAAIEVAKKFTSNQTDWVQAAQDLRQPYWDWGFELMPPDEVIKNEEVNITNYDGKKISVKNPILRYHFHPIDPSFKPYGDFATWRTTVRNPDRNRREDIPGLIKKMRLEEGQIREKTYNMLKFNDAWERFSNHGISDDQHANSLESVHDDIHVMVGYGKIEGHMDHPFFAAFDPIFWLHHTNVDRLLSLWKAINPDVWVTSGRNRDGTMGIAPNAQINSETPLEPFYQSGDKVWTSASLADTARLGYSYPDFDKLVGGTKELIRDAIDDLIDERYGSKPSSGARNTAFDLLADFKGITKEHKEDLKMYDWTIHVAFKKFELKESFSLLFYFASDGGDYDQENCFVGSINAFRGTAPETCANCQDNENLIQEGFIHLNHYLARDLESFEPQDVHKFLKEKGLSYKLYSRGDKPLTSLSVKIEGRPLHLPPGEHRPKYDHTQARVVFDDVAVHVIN
As to conditions: 0.5 uM.
Description: Inhibition of mushroom tyrosinase at 0.5 uM

The nature of data set [2]: Cytotoxicity against mouse B16 cells assessed as cell viability at 50 uM after 24 hrs by MTT assay. The data set is classed as cell-based. To be noted: read-out: Activity.
The target of data set [3] is T1, Tyrosinase (Agaricus bisporus). As to conditions: 1 uM.
Description: Inhibition of mushroom tyrosinase at 1 uM
The subject of data set [4] is B16. As to the kind of experiment: Antimelanogenic activity in mouse B16 cells assessed as inhibition of melanin content at 400 uM relative to alpha-MSH. In kind it is functional.
The test system of data set [5] is B16. Nature of the data set: Antimelanogenic activity in mouse B16 cells assessed as inhibition of melanin content at 25 uM relative to alpha-MSH. The data set is classed as functional.
The target in data set [6] is T2, Tyrosinase (Mus musculus) (UniProt P11344).
T2 sequence (whole entry): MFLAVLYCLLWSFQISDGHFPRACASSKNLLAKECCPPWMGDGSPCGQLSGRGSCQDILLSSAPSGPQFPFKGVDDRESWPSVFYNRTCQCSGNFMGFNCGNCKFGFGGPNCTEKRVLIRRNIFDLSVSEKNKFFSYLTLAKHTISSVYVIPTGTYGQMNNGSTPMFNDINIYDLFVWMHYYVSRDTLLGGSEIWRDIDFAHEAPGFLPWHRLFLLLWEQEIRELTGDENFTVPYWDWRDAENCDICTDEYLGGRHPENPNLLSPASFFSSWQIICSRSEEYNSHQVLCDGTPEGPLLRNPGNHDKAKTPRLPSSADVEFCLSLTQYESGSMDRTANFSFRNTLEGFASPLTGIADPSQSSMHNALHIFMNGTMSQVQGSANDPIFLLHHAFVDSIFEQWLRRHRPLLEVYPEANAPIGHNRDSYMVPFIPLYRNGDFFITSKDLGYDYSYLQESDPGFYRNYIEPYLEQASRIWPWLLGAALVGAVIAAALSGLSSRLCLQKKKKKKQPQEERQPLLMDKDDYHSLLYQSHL
Nature of the data set: Inhibition of tyrosinase activity in mouse B16 cells at 100 uM. In kind it is cell-based.

In data set [7] the target is T2, Tyrosinase (Mus musculus). Nature of the data set: Inhibition of tyrosinase activity in mouse B16 cells at 400 uM. In kind it is cell-based.
Data set [8] addresses T1, Tyrosinase (Agaricus bisporus). To be noted: 2.5 uM.
Description: Inhibition of mushroom tyrosinase at 2.5 uM
In data set [9] the test system is B16. As to the kind of experiment: Antimelanogenic activity in mouse B16 cells assessed as inhibition of melanin content at 100 uM relative to alpha-MSH. The data set is classed as functional.
Data set [10] is described as follows: Cytotoxicity against mouse B16 cells assessed as cell viability at 100 uM after 24 hrs by MTT assay. The data set is classed as cell-based. To be noted: read-out: Activity.
In data set [11] the target is T2, Tyrosinase (Mus musculus). As to the kind of experiment: Inhibition of tyrosinase activity in mouse B16 cells at 25 uM. The data set is classed as cell-based.
The nature of data set [12]: Cytotoxicity against mouse B16 cells assessed as cell viability at 25 uM after 24 hrs by MTT assay. As to conditions: read-out: Activity. The data set is classed as cell-based. On the technique in general: Tetrazolium dyes change colour on reduction, which living cells bring about.
Data set [13] addresses T1, Tyrosinase (Agaricus bisporus). To be noted: 5 uM.
Description: Inhibition of mushroom tyrosinase at 5 uM

Each structure is given as a SMILES string.

As a reminder, the inhibition is the change of the read-out against control, counted positive when it falls.

Turning to `Oc1ccc2cc(-c3cc(O)c(O)c(O)c3)ccc2c1`, the inhibition was 7.53% in data set [1]; 18.7% in [3]; 14.1% in data set [6]; 2.05% in [7]; 39.4% in [8]; 26.2% in data set [11]. Moreover, in data set [13], the inhibition is 86.1%. Also, the viability at 24 h, 50 µM in data set [2] amounted to 98.1%. Besides, in the data set on B16 [4], the inhibition at 400 µM came to 34.7%. The inhibition at 25 µM in the data set on B16 [5] was 50.7%. In addition, the inhibition at 100 µM in the data set with B16 [9] is 45.8%. Moreover, in data set [10], the viability at 24 h, 100 µM was found to be 95.1%. The viability at 24 h, 25 µM in [12] was 98.3%.

For the origin of these results see ChEMBL document CHEMBL1208759, “A newly synthesized, potent tyrosinase inhibitor: 5-(6-hydroxy-2-naphthyl)-1,2,3-benzenetriol” (Bioorg Med Chem Lett, 2010).
